{"source": "patent US8497249B1", "about": "“Fungicidal properties of three saponins from Capsicum frutescens” (The United States of America, as represented by the …, priority 2008, dated 2013)", "key": {"[1]": {"system": "germinating conidia of A. flavus", "details": "within five minutes of the initiation of incubation; De Lucca et al., 2002; cited from earlier work"}, "[2]": {"system": "germinating conidia of A. flavus", "experiment": "Time of fungicidal activity (time course study)", "assay_type": "cell-based, Aspergillus flavus", "details": "after 5 minutes of incubation; total weight 12.67 μg/ml (4:3:3: 12.64 μg/ml)", "procedure": "Bioassays were performed as described earlier (De Lucca et al. 2002, 2006b, supra). The test fungi (Aspergillus flavus, A. niger, A. fumigatus, Fusarium oxysporum, F. solani, and F. verticilioides (formerly F. moniliforme) were grown on potato dextrose agar (Difco, Detroit, Mich.) […] for seven days (30° C.). When needed, conidia were suspended in 1% potato dextrose broth (Difco, Detroit, Mich.), pH 5.2 (PDB). Using a hemocytometer, stock suspension concentrations were determined and final (working) concentrations of 3×10^4 conidia/ml were prepared. Following preparation of the conidia, a sample of nongerminated conidia was immediately used in the bioassay to determine the effect of the saponins on nongerminated conidia. An additional conidial sample for each fungus was incubated for 8 hr at 30° C. These conidia were used in bioassays to determine activity of the saponins against germinating conidia. Individual bioassays consisted of conidia (25 μl), PDB, and the appropriate amount of a mixture of CAY-1, 1081 and 919. The CAY-1 control (CAY-1 alone) bioassays measuring the fungicidal response against the same fungi were performed in a similar manner. Final test volumes were 250 μl. […] Time of fungicidal activity for the saponin mixtures was determined by using the germinating conidia of A. flavus. […] Significance (p<0.001) was determined between viability control and test saponin data."}, "[3]": {"system": "F. verticilioides (formerly F. moniliforme)", "experiment": "Conidial viability bioassay (30 min incubation, colony enumeration)", "assay_type": "cell-based, Fusarium verticilioides", "parameters": "key to Lowest concentration showing significant (p < 0.001) viability reduction: CAY-1 Control / Total Weight of mixture: —: No viability reduction observed", "details": "for Lowest concentration showing significant (p < 0.001) viability reduction: CAY-1 Control / Total Weight of mixture: 30 min incubation", "procedure": "(§1) Bioassays were performed as described earlier (De Lucca et al. 2002, 2006b, supra). The test fungi (Aspergillus flavus, A. niger, A. fumigatus, Fusarium oxysporum, F. solani, and F. verticilioides (formerly F. moniliforme) were grown on potato dextrose agar (Difco, Detroit, Mich.) slants for seven days (30° C.). When needed, conidia were suspended in 1% potato dextrose broth (Difco, Detroit, Mich.), pH 5.2 (PDB). Using a hemocytometer, stock suspension concentrations were determined and final (working) concentrations of 3×10^4 conidia/ml were prepared. Following preparation of the conidia, a sample of nongerminated conidia was immediately used in the bioassay to determine the effect of the saponins on nongerminated conidia. An additional conidial sample for each fungus was incubated for 8 hr at 30° C. These conidia were used in bioassays to determine activity of the saponins against germinating conidia.\n(§2) Individual bioassays consisted of conidia (25 μl), PDB, and the appropriate amount of a mixture of CAY-1, 1081 and 919. The CAY-1 control (CAY-1 alone) bioassays measuring the fungicidal response against the same fungi were performed in a similar manner. Final test volumes were 250 μl. Controls consisted of conidia and PDB medium.\n(§3) After a 30 min incubation period (30° C.), aliquots (50 μl) of each sample were spread on each of four potato dextrose agar plates. The plates were incubated for 48 hours at 30° C., followed by colony enumeration. Three separate runs per conidial type and fungus were performed (n=12).\n(§4) Statistical analyses were performed on the data using SigmaStat 3.1 (Systat, Point Richmond, Calif.). Significance (p<0.001) was determined between viability control and test saponin data."}, "[4]": {"system": "Fusarium species", "experiment": "Conidial viability bioassays, Fusarium species", "assay_type": "cell-based", "details": "nongerminated conidia of the tested Fusarium isolates", "procedure": "as §1, §2\nAfter a 30 min incubation period (30° C.), aliquots (50 μl) of each sample were spread on each of four potato dextrose agar plates. […]"}, "[5]": {"system": "A. niger", "experiment": "Conidial viability bioassay (30 min incubation, colony enumeration)", "assay_type": "cell-based, Aspergillus niger", "parameters": "key to Lowest concentration showing significant (p < 0.001) viability reduction: CAY-1 Control / Total Weight of mixture: —: No viability reduction observed", "details": "for Lowest concentration showing significant (p < 0.001) viability reduction: CAY-1 Control / Total Weight of mixture: 30 min incubation; for Reduction of conidial viability / fungicidal activity (in words): FIG. 2C", "procedure": "as §1, §2, §3, §4"}, "[6]": {"system": "fungi of agricultural and medical importance", "details": "pure saponin; De Lucca et al. 2002, 2006b and others; cited from earlier work"}, "[7]": {"system": "Aspergillus flavus", "experiment": "Conidial viability bioassay (30 min incubation, colony enumeration)", "assay_type": "cell-based", "parameters": "key to Lowest concentration showing significant (p < 0.001) viability reduction: CAY-1 Control / Total Weight of mixture: —: No viability reduction observed", "details": "for Lowest concentration showing significant (p < 0.001) viability reduction: CAY-1 Control / Total Weight of mixture: 30 min incubation; for Reduction of conidial viability / fungicidal activity (in words): FIG. 2A", "procedure": "as §1, §2, §3, §4"}, "[8]": {"system": "F. solani", "experiment": "Conidial viability bioassay (30 min incubation, colony enumeration)", "assay_type": "cell-based, Fusarium solani", "parameters": "key to Lowest concentration showing significant (p < 0.001) viability reduction: CAY-1 Control / Total Weight of mixture: —: No viability reduction observed", "details": "for Lowest concentration showing significant (p < 0.001) viability reduction: CAY-1 Control / Total Weight of mixture: 30 min incubation; for Reduction of conidial viability / fungicidal activity (in words): FIG. 2F", "procedure": "as §1, §2, §3, §4"}, "[9]": {"system": "Fusarium oxysporum", "experiment": "Conidial viability bioassay (30 min incubation, colony enumeration)", "assay_type": "cell-based", "parameters": "key: —: No viability reduction observed", "procedure": "as §1\n(§5) Individual bioassays consisted of conidia (25 μl), PDB, and the appropriate amount of a mixture of CAY-1, 1081 and 919. The CAY-1 control (CAY-1 alone) bioassays measuring the fungicidal response against the same fungi were performed in a similar manner. Final test volumes were 250 μl. […]\nas §4"}, "[10]": {"system": "Aspergillus flavus, A. fumigatus and A. niger", "details": "in vitro; De Lucca et al. 2006a; cited from earlier work"}, "[11]": {"system": "A. fumigatus", "experiment": "Conidial viability bioassay (30 min incubation, colony enumeration)", "assay_type": "cell-based, Aspergillus fumigatus", "parameters": "key: —: No viability reduction observed", "procedure": "as §1, §5, §4"}, "[12]": {"details": "germinating conidia, listed as CAY-1 control"}, "[13]": {"details": "germinating conidia, listed as CAY-1 controls"}}, "data": [{"compound": "CC1CCC2(OC1)OC1CC3C4CCC5CC(OC6OC(CO)C(OC7OC(CO)C(O)C(OC8OC(CO)C(O)C(OC9OC(CO)C(O)C(O)C9O)C8O)C7OC7OC(CO)C(O)C(O)C7O)C(O)C6O)C(O)CC5(C)C4CCC3(C)C1C2C", "note": "(stereo not shown) [CAY-1]", "values": [{"measurement": "Dose producing significant lethality", "setting": "[1]", "value": 12.4, "unit": "µg/mL"}, {"measurement": "Activity (in words)", "setting": "[2]", "value": "inactive"}, {"measurement": "Lowest concentration showing significant (p < 0.001) viability reduction: CAY-1 Control / Total Weight of mixture", "setting": "[3]; germinating conidia", "value": "—"}, {"measurement": "Reduction of conidial viability / fungicidal activity (in words)", "setting": "[3]; germinating conidia, FIG. 2D", "value": "inactive"}, {"measurement": "Lowest concentration showing significant (p < 0.001) viability reduction: CAY-1 Control / Total Weight of mixture", "setting": "[3]; nongerminated conidia", "value": "—"}, {"measurement": "Reduction of conidial viability (in words)", "setting": "[4]", "value": "not reduced"}, {"measurement": "Lowest concentration showing significant (p < 0.001) viability reduction: CAY-1 Control / Total Weight of mixture", "setting": "[5]; germinating conidia", "value": 6.62, "unit": "µg/mL"}, {"measurement": "Reduction of conidial viability / fungicidal activity (in words)", "setting": "[5]; germinating conidia", "value": "No major differences"}, {"measurement": "Reduction of conidial viability / fungicidal activity (in words)", "setting": "[5]; [12]", "value": "significantly (p<0.001) lower viability counts"}, {"measurement": "Reduction of conidial viability / fungicidal activity (in words)", "setting": "[5]; [13]", "value": "significant viability loss"}, {"measurement": "Lowest concentration showing significant (p < 0.001) viability reduction: CAY-1 Control / Total Weight of mixture", "setting": "[5]; nongerminated conidia", "value": "—"}, {"measurement": "Antifungal properties (in words)", "setting": "[6]", "value": "potent fungicidal properties"}, {"measurement": "Lowest concentration showing significant (p < 0.001) viability reduction: CAY-1 Control / Total Weight of mixture", "setting": "[7]; germinating conidia", "value": 4.97, "unit": "µg/mL"}, {"measurement": "Reduction of conidial viability / fungicidal activity (in words)", "setting": "[7]; [12]", "value": "significantly (p<0.001) lower viability counts"}, {"measurement": "Reduction of conidial viability / fungicidal activity (in words)", "setting": "[7]; [13]", "value": "significant viability loss"}, {"measurement": "Lowest concentration showing significant (p < 0.001) viability reduction: CAY-1 Control / Total Weight of mixture", "setting": "[7]; nongerminated conidia", "value": "—^#"}, {"measurement": "Lowest concentration showing significant (p < 0.001) viability reduction: CAY-1 Control / Total Weight of mixture", "setting": "[8]; germinating conidia", "value": 12.43, "unit": "µg/mL"}, {"measurement": "Reduction of conidial viability / fungicidal activity (in words)", "setting": "[8]; germinating conidia", "value": "significantly fungicidal"}, {"measurement": "Reduction of conidial viability / fungicidal activity (in words)", "setting": "[8]; [13]", "value": "significant viability loss"}, {"measurement": "Lowest concentration showing significant (p < 0.001) viability reduction: CAY-1 Control / Total Weight of mixture", "setting": "[8]; nongerminated conidia", "value": "—"}, {"measurement": "Lowest concentration showing significant (p < 0.001) viability reduction: CAY-1 Control / Total Weight of mixture", "setting": "[9]; germinating conidia", "value": "—"}, {"measurement": "Lowest concentration showing significant (p < 0.001) viability reduction: CAY-1 Control / Total Weight of mixture", "setting": "[9]; nongerminated conidia", "value": "—"}, {"measurement": "Interaction with Amphotericin B and intraconazole", "setting": "[10]", "value": "additive synergy"}, {"measurement": "Lowest concentration showing significant (p < 0.001) viability reduction: CAY-1 Control / Total Weight of mixture", "setting": "[11]; germinating conidia", "value": "—"}, {"measurement": "Lowest concentration showing significant (p < 0.001) viability reduction: CAY-1 Control / Total Weight of mixture", "setting": "[11]; nongerminated conidia", "value": "—"}]}]}
